# Target: T1, full-length SgmT (His6-SgmT) (Myxococcus xanthus, UniProt Q1D3G7)
# T1 sequence (Q1D3G7 1-836): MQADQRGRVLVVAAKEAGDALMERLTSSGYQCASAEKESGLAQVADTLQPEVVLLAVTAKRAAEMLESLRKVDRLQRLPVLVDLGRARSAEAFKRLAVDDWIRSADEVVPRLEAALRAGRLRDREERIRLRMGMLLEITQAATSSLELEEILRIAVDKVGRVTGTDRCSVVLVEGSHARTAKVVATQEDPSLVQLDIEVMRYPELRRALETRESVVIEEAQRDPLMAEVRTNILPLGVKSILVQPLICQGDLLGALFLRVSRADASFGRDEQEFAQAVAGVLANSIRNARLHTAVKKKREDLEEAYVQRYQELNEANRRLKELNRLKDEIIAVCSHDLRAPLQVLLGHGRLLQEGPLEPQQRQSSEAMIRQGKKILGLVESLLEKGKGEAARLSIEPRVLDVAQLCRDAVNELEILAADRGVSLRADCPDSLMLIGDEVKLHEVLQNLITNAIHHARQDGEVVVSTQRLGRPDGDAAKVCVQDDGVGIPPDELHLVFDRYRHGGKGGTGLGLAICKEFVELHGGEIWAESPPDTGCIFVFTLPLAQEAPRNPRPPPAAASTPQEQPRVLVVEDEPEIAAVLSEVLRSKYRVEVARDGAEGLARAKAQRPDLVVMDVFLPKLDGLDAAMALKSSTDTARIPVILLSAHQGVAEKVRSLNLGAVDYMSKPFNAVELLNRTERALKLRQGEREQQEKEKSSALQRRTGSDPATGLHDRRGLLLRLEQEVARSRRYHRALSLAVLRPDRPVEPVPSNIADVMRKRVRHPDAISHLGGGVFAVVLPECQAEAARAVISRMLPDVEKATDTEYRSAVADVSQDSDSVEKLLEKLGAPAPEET
# Conditions: labelled compound; 1.0 mM ATP, 10 mM MgCl2, Tris pH 8.0, 30°C, 30 min
smiles,measurement,value
Nc1ncnc2c1ncn2[C@@H]1O[C@H](COP(=O)(O)OP(=O)(O)OP(=O)(O)O)[C@@H](O)[C@H]1O [[γ-^32P]-ATP],"autophosphorylation, SDS-PAGE and phosphorimaging",Autophosphorylation of full-length SgmT and phosphotransfer to DigR

# From paper PMC3509222 (Molecular Microbiology, 2012)
